The numbers were not newly measured in patent US20080152709A1, “CLONIDINE COMPOSITION AND METHOD OF USE” (DRUGTECH CORPORATION, priority 2006, published 2008), which cites them from elsewhere.

For data set [1] the following is noted: oral administration of 0.3 mg.
Data set [2] deals with patients with morning hypertension. The note with it: once daily in the evening, added to pre-existing antihypertensive regimen.
For data set [3] the following is noted: oral 0.075 mg twice daily for three days; third day.
The conditions of data set [4]: administered orally.
For data set [5] the following is noted: once daily oral 0.25 and 0.5 mg, sustained-release formulation.
Test in data set [6]: not given
This is another data set of the same source.

Test in data set [7]: not given
This is another data set of the same source.

[8] abbreviates: single oral dose of 0.3 mg clonidine hydrochloride.
[9] abbreviates: single oral dose of 0.3 mg, all subjects.

Each structure is given as a SMILES string. Counter-ions that a name gives are not always drawn. Like-named read-outs stand apart in the source and are kept apart here.

`Clc1cccc(Cl)c1NC1=NCCN1` [clonidine, N-(2,6-dichlorophenyl)-4,5-dihydro-1H-imidazol-2-amine]: the “effect on diastolic blood pressure” value by setting is: (0.1 mg administered at 4 pm or 8 pm) “not”; (0.1 mg administered at 6 am or 12 noon) “reduced diastolic blood pressure”. The “peak plasma clonidine concentration” value in data set [1] was 1.34 ng/mL. Also, the morning blood pressure entry in data set [2] was “effective in reducing morning blood pressure”. For the same compound, in data set [3], the peak clonidine concentration is 0.39 ng/mL. Moreover, the “absorption from the gastrointestinal tract” value in data set [4] is “almost completely absorbed”. Moreover, the 24-hour antihypertensive efficacy entry in data set [5] was “Reduction in blood pressure was observed throughout the 24 hours”. For the same compound, the “peak clonidine concentration (Cmax)” value in data set [6] (single oral dose 0.075 mg) is 0.28 ng/mL; in data set [6] (single oral dose 0.15 mg), 0.61 ng/mL; in data set [6] (single oral dose 0.25 mg) it was 1.16 ng/mL. For the same compound, the “plasma concentration 24 hours after administration” value in data set [6] (single oral dose 0.075 mg) is 0.06 ng/mL; in data set [6] (single oral dose 0.15 mg), 0.07 ng/mL; in data set [6] (single oral dose 0.25 mg) it was 0.34 ng/mL.

As for `Clc1cccc(Cl)c1N=C1NCCN1` [clonidine hydrochloride], in data set [7] (setting [8]), the “mean maximum plasma concentration” value is 1.35 ng/mL and the “time of mean maximum concentration after administration” value is 1 h. In data set [7] (single oral dose of 0.3 mg clonidine hydrochloride, 24 hours), the “plasma concentration at 24 hours” value is “below 0.5 ng/ml”. In addition, in data set [7] (setting [9]), the “salivary flow (dry mouth symptoms)” value is on record as “marked reduction in salivary flow” and the sedation result was “markedly sedated”.
